For this experiment, the target named is T1, recombinant human NK3 receptor (Homo sapiens, UniProt P29371).
T1 construct: expressed in transfected cells; host or cells: HEK293 cells (transient expression), membranes
T1 sequence (P29371 1-465): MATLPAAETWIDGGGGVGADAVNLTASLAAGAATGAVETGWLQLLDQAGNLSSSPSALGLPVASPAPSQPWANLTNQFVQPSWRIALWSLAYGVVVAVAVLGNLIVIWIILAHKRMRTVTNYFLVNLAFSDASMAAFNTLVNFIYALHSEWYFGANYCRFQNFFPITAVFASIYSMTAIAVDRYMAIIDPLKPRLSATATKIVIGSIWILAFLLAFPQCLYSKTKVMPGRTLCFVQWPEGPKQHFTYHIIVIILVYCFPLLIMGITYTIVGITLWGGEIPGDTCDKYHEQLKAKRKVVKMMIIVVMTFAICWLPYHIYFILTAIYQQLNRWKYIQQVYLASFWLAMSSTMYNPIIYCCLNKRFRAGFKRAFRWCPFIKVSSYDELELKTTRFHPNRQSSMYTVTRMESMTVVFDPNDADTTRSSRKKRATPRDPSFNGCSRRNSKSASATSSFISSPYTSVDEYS
The experiment can be described thus: [3H]SR142801 competition binding assay. Particulars: hNK3 receptor, membranes from HEK293 cells transiently expressing the receptor, [3H]SR142801 radioligand. How it is done:
[^3H]SR142801 Competition Binding Assay
hNK3 receptor binding experiment were performed using [^3H]SR142801 (Catalog No. TRK1035, specific activity: 74.0 Ci/mmol, Amersham, GE Healthcare UK limited, Buckinghamshire, UK) and membrane isolated from HEK293 cells transiently expressing recombinant human NK3 receptor. After thawing, the membrane homogenates were centrifuged at 48,000×g for 10 min at 4° C., the pellets were resuspended in the 50 mM Tris-HCl, 4 mM MnCl2, 1 μM phosphoramidon, 0.1% BSA binding buffer at pH 7.4 to a final assay concentration of 5 μg protein/well. For inhibition experiments, membranes were incubated with [^3H]SR142801 at a concentration equal to KD value of radioligand and 10 concentrations of the inhibitory compound (0.0003-10 μM) (in a total reaction volume of 500 μl) for 75 min at room temperature (RT). At the end of the incubation, membranes were filtered onto unitfilter (96-well white microplate with bonded GF/C filter preincubated 1 h in 0.3% PEI+0.3% BSA, Packard BioScience, Meriden, Conn.) with a Filtermate 196 harvester (Packard BioScience) and washed 4 times with ice-cold 50 mM Tris-HCl, pH 7.4 buffer. Nonspecific binding was measured in the presence of 10 μM SB222200 for both radioligands. The radioactivity on the filter was counted (5 min) on a Packard Top-count microplate scintillation counter with quenching correction after addition of 45 μl of microscint 40 (Can berra Packard S. A., Zürich, Switzerland) and shaking for 1 h. Inhibition curves were fitted according to the Hill equation: […]), where nH=slope factor using Excel-fit 4 software (Microsoft). IC50 values were derived from the inhibition curve and the affinity constant (Ki) values were calculated using the Cheng-Prussoff equation Ki=IC50/(1+[L]/KD) where [L] is the concentration of radioligand and KD is its dissociation constant at the receptor, derived from the saturation isotherm. All experiments were performed in duplicate and the mean±standard error (SEM) of the individual Ki values was calculated.
For `COc1ccc(N2CCC(C(=O)N3C[C@H]([C@H](C)Oc4ccc(Cl)cn4)[C@@H](c4ccc(Cl)cc4)C3)CC2)nc1` [Example 13, {(3S,4R)-3-(4-Chloro-phenyl)-4-[1-((S)-5-chloro-pyridin-2-yloxy)-ethyl]-pyrrolidin-1-yl}-(5′-methoxy-3,4,5,6-tetrahydro-2H-[1,2′]bipyridinyl-4-yl)-methanone], the Ki worked out at 0.7 nM.

As to `C[C@H](Oc1ccc(Cl)cn1)[C@H]1CN(C(=O)C2CCN(c3ncccc3C#N)CC2)C[C@@H]1c1ccc(Cl)cc1` [Example 10, 4-{(3S,4R)-3-(4-Chloro-phenyl)-4-[1-((S)-5-chloro-pyridin-2-yloxy)-ethyl]-pyrrolidine-1-carbonyl}-3,4,5,6-tetrahydro-2H-[1,2′]bipyridinyl-3′-carbonitrile], the Ki worked out at 6.1 nM.

Regarding `C[C@H](Oc1ccc(F)cn1)[C@H]1CN(C(=O)C2CCN(c3ccc(C#N)cn3)CC2)C[C@@H]1c1ccc(Cl)cc1` [Example 7, 4-{(3S,4R)-3-(4-Chloro-phenyl)-4-[1-((S)-5-fluoro-pyridin-2-yloxy)-ethyl]-pyrrolidine-1-carbonyl}-3,4,5,6-tetrahydro-2H-[1,2′]bipyridinyl-5′-carbonitrile], the Ki stood at 1.2 nM.

For the compound `Cc1nnc(N2CCC(C(=O)N3C[C@H]([C@H](C)Oc4ccc(Cl)cn4)[C@@H](c4ccc(Cl)cc4)C3)CC2)o1` [Example 18, {(3S,4R)-3-(4-Chloro-phenyl)-4-[1-((S)-5-chloro-pyridin-2-yloxy)-ethyl]-pyrrolidin-1-yl}-[1-(5-methyl-[1,3,4]oxadiazol-2-yl)-piperidin-4-yl]-methanone], the Ki was determined as 3.1 nM.

Turning to `Cc1ccc(N2CCC(C(=O)N3C[C@H]([C@H](C)Oc4ccc(C#N)cn4)[C@@H](c4ccc(F)c(F)c4)C3)CC2)nn1` [Example 21, 6-((S)-1-{(3R,4S)-4-(3,4-Difluoro-phenyl)-1-[1-(6-methyl-pyridazin-3-yl)-piperidine-4-carbonyl]-pyrrolidin-3-yl}-ethoxy)-nicotinonitrile], the Ki was 2.8 nM.

As to `C[C@H](Oc1ccc(Cl)cn1)[C@H]1CN(C(=O)C2CCN(c3cc(C#N)ccn3)CC2)C[C@@H]1c1ccc(Cl)cc1` [Example 11, 4-{(3S,4R)-3-(4-Chloro-phenyl)-4-[1-((S)-5-chloro-pyridin-2-yloxy)-ethyl]-pyrrolidine-1-carbonyl}-3,4,5,6-tetrahydro-2H-[1,2′]bipyridinyl-4′-carbonitrile], the Ki amounted to 0.5 nM.

With `C[C@H](Oc1ccc(Cl)cn1)[C@H]1CN(C(=O)C2CCN(c3ccc(C#N)nn3)CC2)C[C@@H]1c1ccc(Cl)cc1` [Example 6, 6-(4-{(3S,4R)-3-(4-Chloro-phenyl)-4-[1-((S)-5-chloro-pyridin-2-yloxy)-ethyl]-pyrrolidine-1-carbonyl}-piperidin-1-yl)-pyridazine-3-carbonitrile], the Ki came out at 0.5 nM.

For the compound `C[C@H](Oc1ccc(Cl)cn1)[C@H]1CN(C(=O)C2CCN(c3ccncn3)CC2)C[C@@H]1c1ccc(Cl)cc1` [Example 8, {(3S,4R)-3-(4-Chloro-phenyl)-4-[1-((S)-5-chloro-pyridin-2-yloxy)-ethyl]pyrrolidin-1-yl}-(1-pyrimidin-4-yl-piperidin-4-yl)-methanone], the Ki is 1.3 nM.

Consider `C[C@H](Oc1ccc(Cl)cn1)[C@H]1CN(C(=O)C2CCN(c3ccc(C#N)cn3)CC2)C[C@@H]1c1ccc(Cl)cc1` [Example 1, 4-{(3S,4R)-3-(4-Chloro-phenyl)-4-[1-((S)-5-chloro-pyridin-2-yloxy)-ethyl]-pyrrolidine-1-carbonyl}-3,4,5,6-tetrahydro-2H-[1,2′]bipyridinyl-5′-carbonitrile], for which the Ki is 0.4 nM.

As to `CC(=O)c1ccc(N2CCC(C(=O)N3C[C@H]([C@H](C)Oc4ccc(Cl)cn4)[C@@H](c4ccc(Cl)cc4)C3)CC2)nc1` [Example 9, 1-(4-{(3S,4R)-3-(4-Chloro-phenyl)-4-[1-((S)-5-chloro-pyridin-2-yloxy)-ethyl]-pyrrolidine-1-carbonyl}-3,4,5,6-tetrahydro-2H-[1,2′]bipyridinyl-5′-yl)-ethanone], the Ki stood at 0.5 nM.

Consider `C[C@H](Oc1ccc(F)cn1)[C@H]1CN(C(=O)C2CCN(c3ccc(C#N)nn3)CC2)C[C@@H]1c1ccc(Cl)cc1` [Example 16, 6-(4-{(3S,4R)-3-(4-Chloro-phenyl)-4-[1-((S)-5-fluoro-pyridin-2-yloxy)-ethyl]-pyrrolidine-1-carbonyl}-piperidin-1-yl)-pyridazine-3-carbonitrile], for which the Ki was 0.8 nM.

For `C[C@H](Oc1ccc(Cl)cn1)[C@H]1CN(C(=O)C2CCN(c3ncccn3)CC2)C[C@@H]1c1ccc(Cl)cc1` [Example 3, {(3S,4R)-3-(4-Chloro-phenyl)-4-[1-((S)-5-chloro-pyridin-2-yloxy)-ethyl]-pyrrolidin-1-yl}-(1-pyrimidin-2-yl-piperidin-4-yl)-methanone], the Ki came to 2.1 nM.

Consider `CC(=O)c1ccc(N2CCC(C(=O)N3C[C@H]([C@H](C)Oc4ccc(Cl)cn4)[C@@H](c4ccc(Cl)cc4)C3)CC2)cc1` [Example 5, 1-[4-(4-{(3S,4R)-3-(4-Chloro-phenyl)-4-[1-((S)-5-chloro-pyridin-2-yloxy)-ethyl]-pyrrolidine-1-carbonyl}-piperidin-1-yl)-phenyl]-ethanone], for which the Ki worked out at 0.4 nM.

For `COc1ccc(N2CCC(C(=O)N3C[C@H]([C@H](C)Oc4ccc(Cl)cn4)[C@@H](c4ccc(Cl)cc4)C3)CC2)cn1` [Example 15, {(3S,4R)-3-(4-Chloro-phenyl)-4-[1-((S)-5-chloro-pyridin-2-yloxy)-ethyl]-pyrrolidin-1-yl}-(6′-methoxy-3,4,5,6-tetrahydro-2H-[1,3,′]bipyridinyl-4-yl)-methanone], the Ki amounted to 0.5 nM.

As for `C[C@H](Oc1ccc(Cl)cn1)[C@H]1CN(C(=O)C2CCN(c3ccc(C(F)(F)F)cn3)CC2)C[C@@H]1c1ccc(Cl)cc1` [Example 4, {(3S,4R)-3-(4-Chloro-phenyl)-4-[1-((S)-5-chloro-pyridin-2-yloxy)-ethyl]-pyrrolidin-1-yl}-(5′-trifluoromethyl-3,4,5,6-tetrahydro-2H-[1,2′]bipyridinyl-4-yl)-methanone], the Ki stood at 0.8 nM.

As to `Cc1ccc(N2CCC(C(=O)N3C[C@H]([C@H](C)Oc4ccc(F)cn4)[C@@H](c4ccc(Cl)cc4)C3)CC2)nn1` [Example 12, {(3S,4R)-3-(4-Chloro-phenyl)-4-[1-((S)-5-fluoro-pyridin-2-yloxy)-ethyl]-pyrrolidin-1-yl}-[1-(6-methyl-pyridazin-3-yl)-piperidin-4-yl]-methanone], the Ki is 2.1 nM.

With `C[C@H](Oc1ccc(C#N)cn1)[C@H]1CN(C(=O)C2CCN(c3ccc(C#N)cn3)CC2)C[C@@H]1c1ccc(F)c(F)c1` [Example 19, 4-[(3R,48)-3-[1-((S)-5-Cyano-pyridin-2-yloxy)-ethyl]-4-(3,4-difluoro-phenyl)-pyrrolidine-1-carbonyl]-3,4,5,6-tetrahydro-2H-[1,2′]bipyridinyl-5′-carbonitrile], the Ki was 1.2 nM.

As to `COc1ccc(N2CCC(C(=O)N3C[C@H]([C@H](C)Oc4ccc(Cl)cn4)[C@@H](c4ccc(Cl)cc4)C3)CC2)nn1` [Example 14, {(3S,4R)-3-(4-Chloro-phenyl)-4-[1-((S)-5-chloro-pyridin-2-yloxy)-ethyl]-pyrrolidin-1-yl}-[1-(6-methoxy-pyridazin-3-yl)-piperidin-4-yl]-methanone], the Ki amounted to 1.2 nM.

In the case of `C[C@H](Oc1ccc(Cl)cn1)[C@H]1CN(C(=O)C2CCN(c3cccc(C#N)n3)CC2)C[C@@H]1c1ccc(Cl)cc1` [Example 17, 4-{(3S,4R)-3-(4-Chloro-phenyl)-4-[1-((S)-5-chloro-pyridin-2-yloxy)-ethyl]-pyrrolidine-1-carbonyl}-3,4,5,6-tetrahydro-2H-[1,2′]bipyridinyl-6′-carbonitrile], the Ki was 1.5 nM.

As to `C[C@H](Oc1ccc(Cl)cn1)[C@H]1CN(C(=O)C2CCN(c3cnccn3)CC2)C[C@@H]1c1ccc(Cl)cc1` [Example 2, {(3S,4R)-3-(4-Chloro-phenyl)-4-[1-((S)-5-chloro-pyridin-2-yloxy)-ethyl]-pyrrolidin-1-yl}-(1-pyrazin-2-yl-piperidin-4-yl)-methanone], the Ki worked out at 1.9 nM.
